Measurements from the supplement of paper PMC11061612.

Key:
SRA737 = compound: N#Cc1cnc(Nc2cc(NC[C@H]3CNCCO3)c(C(F)(F)F)cn2)cn1 [SRA737]; conditions: max 10 µM
Procedure, shortened: (§1)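 Cancer cell lines were plated in 1536-well plates in 7.5 μl of DMEM/F12 or RPMI with 10% FBS and kept 24 hours at 37°C and 5% CO2 before 72 hours of dosing, with final DMSO typically 0.2%. CellTiter-Glo 2.0 luminescence measured viability, scaled between blank-well and DMSO-well means. Dose responses were fitted to a two-parameter logistic curve with a non-linear mixed effects model. This fit gives the single-agent IC50.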

SN-38 = compound: CCc1c2c(nc3ccc(O)cc13)-c1cc3c(c(=O)n1C2)COC(=O)[C@]3(O)CC [SN-38]; conditions: max 0.3 µM
Procedure, shortened: as §1

Doxorubicin = compound: COc1cccc2c1C(=O)c1c(O)c3c(c(O)c1C2=O)C[C@@](O)(C(=O)CO)C[C@@H]3O[C@H]1C[C@H](N)[C@H](O)[C@H](C)O1 [Doxorubicin]; conditions: max 1 µM
Procedure, shortened: as §1

AZD4320 = compound: CN(CC[C@H](CSC1=CC=CC=C1)NC2=C(C=C(C=C2)S(=O)(=O)NC(=O)C3=CC=C(C=C3)N4CCC(CC4)[C@H](C5=CC=CC=C5C6=CC=C(C=C6)Cl)O)S(=O)(=O)C(F)(F)F)CCO [AZD4320]; conditions: max 1 µM
Procedure, shortened: as §1

Taselisib = compound: Cc1nc(-c2cn3c(n2)-c2ccc(-c4cnn(C(C)(C)C(N)=O)c4)cc2OCC3)n(C(C)C)n1 [Taselisib]; conditions: max 10 µM
Procedure, shortened: as §1

Olaparib = compound: O=C(c1cc(Cc2n[nH]c(=O)c3ccccc23)ccc1F)N1CCN(C(=O)C2CC2)CC1 [Olaparib]; conditions: max 10 µM
Procedure, shortened: as §1

Palbociclib = compound: CC(=O)c1c(C)c2cnc(Nc3ccc(N4CCNCC4)cn3)nc2n(C2CCCC2)c1=O [Palbociclib]; conditions: max 10 µM
Procedure, shortened: as §1

AZD8186 = compound: C[C@@H](Nc1cc(F)cc(F)c1)c1cc(C(=O)N(C)C)cc2c(=O)cc(N3CCOCC3)oc12 [AZD8186]; conditions: max 10 µM
Procedure, shortened: as §1

Prexasertib = compound: COc1cccc(OCCCN)c1-c1cc(Nc2cnc(C#N)cn2)n[nH]1 [Prexasertib]; conditions: max 1 µM
Procedure, shortened: as §1

AZD0156 = compound: CN(C)CCCOc1ccc(-c2ccc3ncc4c(c3c2)n(C2CCOCC2)c(=O)n4C)cn1 [AZD0156]; conditions: max 3 µM
Procedure, shortened: as §1

5-Fluorouracil = compound: O=c1[nH]cc(F)c(=O)[nH]1 [5-Fluorouracil]; conditions: max 20 µM
Procedure, shortened: as §1

AZD1390 = compound: CC(C)n1c(=O)n(C)c2cnc3cc(F)c(-c4ccc(OCCCN5CCCCC5)nc4)cc3c21 [AZD1390]; conditions: max 0.3 µM
Procedure, shortened: as §1

AZD5991 = compound: Cc1c2c(nn1C)CSCc1cc(n(C)n1)CSc1cc(c3ccccc3c1)OCCCc1c(C(=O)O)n(C)c3c-2c(Cl)ccc13 [AZD5991]; conditions: max 1 µM
Procedure, shortened: as §1

AZD5153 = compound: COc1nnc2ccc(N3CCC(c4ccc(OCCN5CCN(C)C(=O)[C@H]5C)cc4)CC3)nn12 [AZD5153]; conditions: max 1 µM
Procedure, shortened: as §1

Dasatinib = compound: CC1=C(C(=CC=C1)Cl)NC(=O)C2=CN=C(S2)NC3=CC(=NC(=N3)C)N4CCN(CC4)CCO [Dasatinib]; conditions: max 2 µM
Procedure, shortened: as §1

AZD2811 = compound: CCN(CCO)CCCOc1ccc2c(Nc3cc(CC(=O)Nc4cccc(F)c4)[nH]n3)ncnc2c1 [AZD2811]; conditions: max 1 µM
Procedure, shortened: as §1

SG3199 = compound: CC1=CN2[C@@H](C1)C=NC3=CC(=C(C=C3C2=O)OC)OCCCCCOC4=C(C=C5C(=C4)N=C[C@@H]6CC(=CN6C5=O)C)OC [SG3199]; conditions: max 0.001 µM
Procedure, shortened: as §1

Etoposide = compound: COc1cc([C@@H]2c3cc4c(cc3[C@@H](O[C@@H]3O[C@@H]5CO[C@@H](C)O[C@H]5[C@H](O)[C@H]3O)[C@H]3COC(=O)[C@H]23)OCO4)cc(OC)c1O [Etoposide]; conditions: max 10 µM
Procedure, shortened: as §1

AZD1775 = compound: C=CCn1c(=O)c2cnc(Nc3ccc(N4CCN(C)CC4)cc3)nc2n1-c1cccc(C(C)(C)O)n1 [AZD1775]; conditions: max 3 µM
Procedure, shortened: as §1

AZD5363 = compound: C1CN(CCC1(C(=O)N[C@@H](CCO)C2=CC=C(C=C2)Cl)N)C3=NC=NC4=C3C=CN4 [AZD5363]; conditions: max 10 µM
Procedure, shortened: as §1

Lapatinib = compound: CS(=O)(=O)CCNCc1ccc(-c2ccc3ncnc(Nc4ccc(OCc5cccc(F)c5)c(Cl)c4)c3c2)o1 [Lapatinib]; conditions: max 10 µM
Procedure, shortened: as §1

Venetoclax = compound: CC1(C)CCC(CN2CCN(c3ccc(C(=O)NS(=O)(=O)c4ccc(NCC5CCOCC5)c([N+](=O)[O-])c4)c(Oc4cnc5[nH]ccc5c4)c3)CC2)=C(c2ccc(Cl)cc2)C1 [Venetoclax]; conditions: max 1 µM
Procedure, shortened: as §1

Gefitinib = compound: COc1cc2ncnc(Nc3ccc(F)c(Cl)c3)c2cc1OCCCN1CCOCC1 [Gefitinib]; conditions: max 10 µM
Procedure, shortened: as §1

Gemcitabine = compound: Nc1ccn([C@@H]2O[C@H](CO)[C@@H](O)C2(F)F)c(=O)n1 [Gemcitabine]; conditions: max 0.3 µM
Procedure, shortened: as §1

AZD6738 = compound: C[C@@H]1COCCN1C2=NC(=NC(=C2)C3(CC3)[S@](=N)(=O)C)C4=C5C=CNC5=NC=C4 [AZD6738]; conditions: max 10 µM
Procedure, shortened: as §1

Alisertib = compound: COc1cc(Nc2ncc3c(n2)-c2ccc(Cl)cc2C(c2c(F)cccc2OC)=NC3)ccc1C(=O)O [Alisertib]; conditions: max 10 µM
Procedure, shortened: as §1

Carboplatin = compound: C1CC(C1)(C(=O)[O-])C(=O)[O-].N.N.[Pt+2] [Carboplatin]; conditions: max 10 µM
Procedure, shortened: as §1

Trametinib = compound: CC(=O)Nc1cccc(-n2c(=O)n(C3CC3)c(=O)c3c(Nc4ccc(I)cc4F)n(C)c(=O)c(C)c32)c1 [Trametinib]; conditions: max 1 µM
Procedure, shortened: as §1

AZD7648 = compound: Cc1cc2ncnn2cc1Nc1ncc2c(n1)n(C1CCOCC1)c(=O)n2C [AZD7648]; conditions: max 10 µM
Procedure, shortened: as §1

Savolitinib = compound: C[C@@H](c1ccc2nccn2c1)n1nnc2ncc(-c3cnn(C)c3)nc21 [Savolitinib]; conditions: max 1 µM
Procedure, shortened: as §1

Crizotinib = compound: C[C@@H](Oc1cc(-c2cnn(C3CCNCC3)c2)cnc1N)c1c(Cl)ccc(F)c1Cl [Crizotinib]; conditions: max 10 µM
Procedure, shortened: as §1

Paclitaxel = compound: CC(=O)O[C@H]1C(=O)[C@@]2(C)[C@H]([C@H](OC(=O)c3ccccc3)[C@]3(O)C[C@H](OC(=O)[C@H](O)[C@@H](NC(=O)c4ccccc4)c4ccccc4)C(C)=C1C3(C)C)[C@]1(OC(C)=O)CO[C@@H]1C[C@@H]2O [Paclitaxel]; conditions: max 3 µM
Procedure, shortened: as §1

Selumetinib = compound: Cn1cnc2c(F)c(Nc3ccc(Br)cc3Cl)c(C(=O)NOCCO)cc21 [Selumetinib]; conditions: max 10 µM
Procedure, shortened: as §1

MK-2206 = compound: NC1(c2ccc(-c3nc4ccn5c(=O)[nH]nc5c4cc3-c3ccccc3)cc2)CCC1 [MK-2206]; conditions: max 10 µM
Procedure, shortened: as §1

[1] = compound: O=C(Nc1ccc2[nH]nc(-c3ccncc3)c2c1)[C@@H]1CCN(CC(=O)N2CCN(c3ccc(-c4ncccn4)cc3)CC2)C1; conditions: max 5 µM
Procedure, shortened: as §1

Cell Line	IC50, cell viability 72 h (SRA737)	IC50, cell viability 72 h (SN-38)	IC50, cell viability 72 h (Doxorubicin)	IC50, cell viability 72 h (AZD4320)	IC50, cell viability 72 h (Taselisib)	IC50, cell viability 72 h (Olaparib)	IC50, cell viability 72 h (Palbociclib)	IC50, cell viability 72 h (AZD8186)	IC50, cell viability 72 h (Prexasertib)	IC50, cell viability 72 h (AZD0156)	IC50, cell viability 72 h (5-Fluorouracil)	IC50, cell viability 72 h (AZD1390)	IC50, cell viability 72 h (AZD5991)	IC50, cell viability 72 h (AZD5153)	IC50, cell viability 72 h (Dasatinib)	IC50, cell viability 72 h (AZD2811)	IC50, cell viability 72 h (SG3199)	IC50, cell viability 72 h (Etoposide)	IC50, cell viability 72 h (AZD1775)	IC50, cell viability 72 h (AZD5363)	IC50, cell viability 72 h (Lapatinib)	IC50, cell viability 72 h (Venetoclax)	IC50, cell viability 72 h (Gefitinib)	IC50, cell viability 72 h (Gemcitabine)	IC50, cell viability 72 h (AZD6738)	IC50, cell viability 72 h (Alisertib)	IC50, cell viability 72 h (Carboplatin)	IC50, cell viability 72 h (Trametinib)	IC50, cell viability 72 h (AZD7648)	IC50, cell viability 72 h (Savolitinib)	IC50, cell viability 72 h (Crizotinib)	IC50, cell viability 72 h (Paclitaxel)	IC50, cell viability 72 h (Selumetinib)	IC50, cell viability 72 h (MK-2206)	IC50, cell viability 72 h [1]
RKN (Other Solid Carcinomas)	> 10 µM	> 0.3 µM	> 1 µM	> 1 µM	> 10 µM	> 10 µM	> 10 µM	> 10 µM	0.267 µM	> 3 µM	> 20 µM	> 0.3 µM	> 1 µM	> 1 µM	1.74 µM	> 1 µM	> 0.001 µM	> 10 µM	2.3 µM	> 10 µM	> 10 µM	> 1 µM	> 10 µM	> 0.3 µM	> 10 µM	> 10 µM	> 10 µM	> 1 µM	> 10 µM	> 1 µM	> 10 µM	0.0408 µM	> 10 µM	> 10 µM	> 5 µM
OPM-2 (Plasma Cell Myeloma)	4.98 µM	0.108 µM	0.754 µM	0.691 µM	0.815 µM	> 10 µM	8.6 µM	> 10 µM	0.0213 µM	> 3 µM	> 20 µM	> 0.3 µM	0.0323 µM	0.0126 µM	> 2 µM	> 1 µM	> 0.001 µM	9.35 µM	0.559 µM	1.12 µM	> 10 µM	> 1 µM	> 10 µM	0.098 µM	3.92 µM	5.67 µM	> 10 µM	0.67 µM	> 10 µM	> 1 µM	4.23 µM	0.00668 µM	> 10 µM	4.97 µM	> 5 µM
SF539 (Glioblastoma)	1.93 µM	0.0189 µM	0.351 µM	> 1 µM	3.75 µM	> 10 µM	> 10 µM	> 10 µM	0.00882 µM	> 3 µM	14.5 µM	> 0.3 µM	> 1 µM	0.37 µM	1.63 µM	> 1 µM	> 0.001 µM	2.14 µM	0.185 µM	3.27 µM	> 10 µM	> 1 µM	> 10 µM	0.0239 µM	2.05 µM	4.93 µM	> 10 µM	> 1 µM	> 10 µM	> 1 µM	9.82 µM	0.00753 µM	> 10 µM	9.37 µM	3.22 µM
NB12 (Neuroblastoma)	> 10 µM	0.00661 µM		0.0311 µM	0.968 µM	> 10 µM	> 10 µM	> 10 µM		> 3 µM	> 20 µM	> 0.3 µM	> 1 µM	0.217 µM	> 2 µM	0.342 µM		> 10 µM	0.731 µM	> 10 µM	> 10 µM	0.333 µM	> 10 µM	0.0574 µM	> 10 µM		> 10 µM	> 1 µM	> 10 µM	> 1 µM	9.85 µM	0.015 µM	> 10 µM	7.04 µM	> 5 µM
PC-3_[JPC-3] (Lung Adenocarcinoma)	> 10 µM	0.0359 µM	> 1 µM	> 1 µM	> 10 µM	> 10 µM	> 10 µM	> 10 µM	> 1 µM	> 3 µM	> 20 µM	> 0.3 µM	> 1 µM	> 1 µM	0.853 µM	> 1 µM	> 0.001 µM	> 10 µM	> 3 µM	> 10 µM	5.12 µM	> 1 µM		0.23 µM	> 10 µM	> 10 µM	> 10 µM	> 1 µM	> 10 µM	> 1 µM	> 10 µM	0.416 µM	> 10 µM	> 10 µM	> 5 µM
SK-MEL-2 (Melanoma)	> 10 µM	> 0.3 µM		> 1 µM	> 10 µM	> 10 µM	> 10 µM	> 10 µM		> 3 µM	> 20 µM	> 0.3 µM	0.343 µM	0.345 µM	> 2 µM	> 1 µM		> 10 µM	> 3 µM	> 10 µM	> 10 µM	> 1 µM	> 10 µM	> 0.3 µM	> 10 µM		> 10 µM	0.0324 µM	> 10 µM	> 1 µM	> 10 µM	0.402 µM	3.99 µM	> 10 µM	0.716 µM
